Literature values in US20150018665A1, “MOLECULAR AND CELLULAR IMAGING USING ENGINEERED HEMODYNAMIC RESPONSES” (Massachusetts Institute of Technology, priority 2013, published 2015).

Target: nNOS (Homo sapiens, UniProt P29475)
Conditions: blockade of nNOS

nNOS, sequence (P29475 whole entry, species assumed): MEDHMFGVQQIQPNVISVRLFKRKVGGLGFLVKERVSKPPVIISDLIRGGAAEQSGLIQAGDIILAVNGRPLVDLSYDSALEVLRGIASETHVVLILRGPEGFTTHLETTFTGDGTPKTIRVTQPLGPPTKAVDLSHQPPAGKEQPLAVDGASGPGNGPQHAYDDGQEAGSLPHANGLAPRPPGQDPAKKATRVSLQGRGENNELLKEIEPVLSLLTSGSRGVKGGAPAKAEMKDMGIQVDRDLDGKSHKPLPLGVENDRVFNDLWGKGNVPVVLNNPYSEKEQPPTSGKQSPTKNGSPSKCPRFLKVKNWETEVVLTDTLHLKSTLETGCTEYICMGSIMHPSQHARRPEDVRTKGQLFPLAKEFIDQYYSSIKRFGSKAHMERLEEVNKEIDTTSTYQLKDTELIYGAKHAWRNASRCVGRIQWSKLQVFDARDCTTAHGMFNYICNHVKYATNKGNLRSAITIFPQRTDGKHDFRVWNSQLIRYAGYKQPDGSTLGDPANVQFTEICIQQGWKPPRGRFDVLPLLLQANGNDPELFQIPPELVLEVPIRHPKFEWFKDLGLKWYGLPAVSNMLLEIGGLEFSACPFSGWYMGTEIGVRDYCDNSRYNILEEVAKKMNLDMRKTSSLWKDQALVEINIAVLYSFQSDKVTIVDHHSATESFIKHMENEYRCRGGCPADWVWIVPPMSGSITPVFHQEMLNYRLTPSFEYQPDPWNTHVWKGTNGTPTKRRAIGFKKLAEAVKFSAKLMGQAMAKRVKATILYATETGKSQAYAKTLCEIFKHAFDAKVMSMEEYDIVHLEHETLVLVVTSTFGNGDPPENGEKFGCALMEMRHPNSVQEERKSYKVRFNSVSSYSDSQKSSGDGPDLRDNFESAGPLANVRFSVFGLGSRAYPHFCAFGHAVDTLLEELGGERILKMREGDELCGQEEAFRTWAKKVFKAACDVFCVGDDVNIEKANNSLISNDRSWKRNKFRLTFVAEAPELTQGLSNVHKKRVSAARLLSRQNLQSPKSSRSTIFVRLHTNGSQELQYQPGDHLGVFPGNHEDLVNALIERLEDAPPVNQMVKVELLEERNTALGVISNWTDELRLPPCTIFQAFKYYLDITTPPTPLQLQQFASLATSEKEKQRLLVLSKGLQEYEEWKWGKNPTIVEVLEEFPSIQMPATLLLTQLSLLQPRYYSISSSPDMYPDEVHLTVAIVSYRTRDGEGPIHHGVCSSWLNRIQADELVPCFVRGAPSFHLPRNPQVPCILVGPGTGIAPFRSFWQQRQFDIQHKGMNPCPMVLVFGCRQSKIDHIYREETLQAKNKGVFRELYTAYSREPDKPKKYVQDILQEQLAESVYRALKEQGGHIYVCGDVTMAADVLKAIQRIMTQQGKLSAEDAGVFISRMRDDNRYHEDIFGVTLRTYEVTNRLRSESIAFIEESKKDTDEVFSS

NC(=NCCC[C@H](N)C(=O)O)N[N+](=O)[O-] [L-nitroarginine]
effect on fMRI-detectable responses to stimulation: abolishes or sharply reduces
